Assay results published in patent US9920074B2 (ACEA BIOSCIENCES INC., priority 2013, dated 2018).

Experiments:
Type in all cases: cell-based
[1] = molecular target: T1, Btk (Tyr223) phosphorylation in Ramos cells (Homo sapiens, UniProt Q06187); assay: Btk Tyr223 phosphorylation inhibition, western blotting assay (Example 72); settings: Btk Tyr223 phosphorylation, 45 min, 12 μg/mL IgM, read-out: BTK Inhibition
T1 construct: endogenous in cells; host or cells: Ramos cells (ATCC)
Protocol: Ramos cell line was obtained from the American Type Culture Collection and was maintained at 37° C. with 5% CO2, in media supplemented with 10% fetal bovine serum, penicillin (100 units/mL) and streptomycin (100 μg/mL), Goat F(ab′)2 Anti-Human IgM-UNLB was obtained from SouthernBiotech.
(§1) Ramos cells were treated with compounds at indicated doses for 45 min at room temperature, followed by stimulation of 12 μg/mL of IgM for 30 min, and then lysed. Western blots were performed on the cell lysate using Phospho-Btk (Tyr223), Phospho-Btk (Tyr551), Btk, Phospho-PLCγ2 (Tyr1217), PLCγ2, Phospho-p44/42 MAPK (Erk1/2) (Thr202/Tyr204) and p44/42 MAPK (Erk1/2) antibodies (Cell Signaling Technology). The density of blotting band was acquired using ImageJ software, and the IC50 of Btk (Tyr223) phosphorylation was fitted using a non-linear regression model by GraphPad Prism version 4.0.

[2] = molecular target: T1, Btk (Tyr223) phosphorylation in Ramos cells; assay: Western blotting assay for Btk (Example 73); settings: 45 min, 6 μg/mL anti-IgM, read-out: Btk Inhibition
Protocol: (§2) All cell lines were obtained from the American Type Culture Collection and were maintained at 37° C. with 5% CO2. Ramos cell line was maintained in media supplemented with 10% fetal bovine serum, penicillin (100 units/mL) and streptomycin (100 μg/mL). NK-92 cell line was maintained in media supplemented with 10% fetal bovine serum and 10% horse serum, penicillin (100 units/mL) and streptomycin (100 μg/mL), IL-2 10 ng/mL. Goat F(ab′)2 Anti-Human IgM-UNLB was obtained from SouthernBiotech. IL-2 was obtained from Peprotech.
as §1, with “of 6” for “of 12”, “of anti-IgM” for “of IgM”, “GraphPad Prism.” for “GraphPad Prism version 4.0.”

[3] = tested on: Stat5 phosphorylation in NK-92 cells; assay: Western blotting assay for Stat5; settings: NK92, 1 hour, IL-2 stimulation, read-out: Stat5 inhibition
Protocol: as §2
(§3) NK-92 cells were treated with compounds at the dosed indicated for 1 hour in incubator, followed by the IL-2 stimulation for 15 minutes. Cells were then collected and lysed to prepare the cellular extraction. Western blots were performed on cell lysate using Phospho-Jak3, Jak3, Phospho-Stat5, Stat5 antibodies (Cell Signaling Technology). The intensity of blotting band was acquired using Image Lab (Bio-Rad) software, and the IC50 of target was generated with GraphPad Prism.

[4] = molecular target: T2, free Btk protein from Ramos cells (Homo sapiens, UniProt Q06187); assay: Btk target site occupancy ELISA assay; settings: 1 h, ELISA, read-out: Btk Occupancy Assay (IC50)
T2 construct: endogenous in cells; host or cells: Ramos cells (ATCC)
Protocol: (§4) Ramos cells were treated with Compound I-1 at indicated concentrations for 1 h, followed by stimulation with 6 μg/mL of IgM for 30 mm, and then lysed. Lysates were incubated with Compound I-21 (biotin labeled) at a final concentration of 1 μM in a PBS, 0.05% Tween-20, 1% BSA solution while shaking for 1 h at room temperature. Samples were transferred to a streptavidin-coated 96-well ELISA plate and mixed while shaking for 1 h at room temperature. The Btk antibody (BD 611116, 1:1000 dilution in PBS+0.05% Tween-20+0.5% BSA) was then applied and incubated for 1 h at room temperature. After wash, goat anti-mouse-HRP (Pierce 31432, 1:1000 dilution in PBS+0.05% Tween-20+0.5% BSA) was added and incubated for 1 h at room temperature. The ELISA was developed with addition of tetramethyl benzidine (TMB) followed by Stop Solution and read at OD 450 nm.
as §4, with “Compounds” for “Compound I-1”, “anti-IgM” for “IgM”, “diluted” for “dilution”, “tetramethylbenzidine” for “tetramethyl benzidine”

[5] = molecular target: T3, Jak3 phosphorylation in NK-92 cells (Homo sapiens, UniProt P52333); assay: Western blotting assay for Jak3; settings: 1 hour, IL-2 stimulation, read-out: Jak3 inhibition
T3 construct: endogenous in cells; host or cells: NK-92 cells (ATCC)
T3 sequence (P52333 1-1124): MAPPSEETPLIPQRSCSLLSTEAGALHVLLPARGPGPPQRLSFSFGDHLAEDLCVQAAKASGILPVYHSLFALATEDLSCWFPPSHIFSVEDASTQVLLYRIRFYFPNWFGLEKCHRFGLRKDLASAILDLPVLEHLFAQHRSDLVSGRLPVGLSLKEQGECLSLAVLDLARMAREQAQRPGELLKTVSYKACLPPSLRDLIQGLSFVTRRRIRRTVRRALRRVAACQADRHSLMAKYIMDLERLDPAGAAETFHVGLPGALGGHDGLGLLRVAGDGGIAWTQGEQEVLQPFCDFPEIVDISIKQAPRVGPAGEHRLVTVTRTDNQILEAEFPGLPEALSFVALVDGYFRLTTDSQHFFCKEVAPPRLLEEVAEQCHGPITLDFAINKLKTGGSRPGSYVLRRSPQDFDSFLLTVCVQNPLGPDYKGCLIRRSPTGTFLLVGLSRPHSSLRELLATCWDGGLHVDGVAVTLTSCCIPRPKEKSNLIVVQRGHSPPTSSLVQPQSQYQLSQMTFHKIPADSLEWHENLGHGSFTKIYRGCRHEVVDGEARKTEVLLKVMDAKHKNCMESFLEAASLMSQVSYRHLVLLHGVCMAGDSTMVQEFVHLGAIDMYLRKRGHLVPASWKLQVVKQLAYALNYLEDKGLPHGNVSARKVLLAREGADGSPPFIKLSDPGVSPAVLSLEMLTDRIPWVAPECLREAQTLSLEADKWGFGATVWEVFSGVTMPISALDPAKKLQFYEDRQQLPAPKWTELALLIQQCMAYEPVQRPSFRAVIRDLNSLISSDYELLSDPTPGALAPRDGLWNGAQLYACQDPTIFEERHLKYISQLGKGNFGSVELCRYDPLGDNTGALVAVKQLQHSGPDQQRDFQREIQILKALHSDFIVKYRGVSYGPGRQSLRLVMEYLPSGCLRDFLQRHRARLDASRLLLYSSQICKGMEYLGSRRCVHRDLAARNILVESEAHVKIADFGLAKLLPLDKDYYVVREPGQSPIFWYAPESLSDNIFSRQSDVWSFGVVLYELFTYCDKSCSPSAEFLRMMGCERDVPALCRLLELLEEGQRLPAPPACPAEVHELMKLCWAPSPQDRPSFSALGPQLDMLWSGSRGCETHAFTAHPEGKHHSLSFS
Protocol: as §2, §3

T2 sequence (Q06187 whole entry): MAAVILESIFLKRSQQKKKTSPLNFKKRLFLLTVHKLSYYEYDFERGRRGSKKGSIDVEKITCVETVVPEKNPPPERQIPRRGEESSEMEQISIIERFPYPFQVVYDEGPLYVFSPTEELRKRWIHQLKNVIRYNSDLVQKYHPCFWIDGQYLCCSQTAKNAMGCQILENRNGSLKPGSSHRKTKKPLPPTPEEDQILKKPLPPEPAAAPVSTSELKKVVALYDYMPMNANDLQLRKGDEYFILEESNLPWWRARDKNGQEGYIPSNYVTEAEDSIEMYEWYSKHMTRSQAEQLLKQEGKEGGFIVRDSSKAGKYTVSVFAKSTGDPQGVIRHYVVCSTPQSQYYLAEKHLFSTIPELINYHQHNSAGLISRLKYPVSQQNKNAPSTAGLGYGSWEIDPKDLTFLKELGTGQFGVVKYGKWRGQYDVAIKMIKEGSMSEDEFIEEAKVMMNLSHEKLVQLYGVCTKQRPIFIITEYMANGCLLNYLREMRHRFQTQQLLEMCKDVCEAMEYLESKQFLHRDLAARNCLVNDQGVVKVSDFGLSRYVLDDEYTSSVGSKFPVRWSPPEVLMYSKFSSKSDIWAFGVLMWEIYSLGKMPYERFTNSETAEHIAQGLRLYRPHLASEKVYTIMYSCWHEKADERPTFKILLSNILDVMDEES
T1 sequence (Q06187 whole entry): as above

SMILES | IC50 [1] | IC50 [2] | IC50 [3] | IC50 [4] | IC50 [5]
C=CC(=O)Nc1cccc(Nc2nc(Nc3ccc(N[C@H]4CCN(CCF)C4)cc3)ncc2F)c1 [Compound I-15] | < 0.01 µM | ≤ 0.01 µM | ≥ 0.4 µM | – | –
C=CC(=O)Nc1cccc(Oc2nc(Nc3ccc(N4CCN(CCF)CC4)c(F)c3)ncc2OC)c1 [Compound I-3, N-(3-(2-(3-fluoro-4-(4-(2-fluoroethyl)piperazin-1-yl)phenylamino)-5-methoxypyrimidin-4-yloxy)phenyl)acrylamide] | < 0.01 µM | ≤ 0.01 µM | 0.2 to 0.4 µM | – | –
C=CC(=O)Nc1cccc(Nc2nc(Nc3ccc(N4CCN(CCF)CC4)c(F)c3)ncc2F)c1 [Compound I-4, N-(3-((5-fluoro-2-((3-fluoro-4-(4-(2-fluoroethyl)piperazin-1yl)phenyl)amino)pyrimidin-4-yl)amino)phenyl)acrylamide] | < 0.01 µM | ≤ 0.01 µM | 0.2 to 0.4 µM | – | –
C=CC(=O)Nc1cccc(Oc2nc(Nc3ccc(N4CCN(CCF)CC4)cc3)ncc2OC)c1 [Compound I-9] | < 0.01 µM | ≤ 0.01 µM | 0.2 to 0.4 µM | – | –
C=CC(=O)Nc1cccc(Nc2nc(Nc3ccc(N[C@H]4CCN(CCF)C4)cc3)ncc2OC)c1 [Compound I-16, (S)—N-(3-(2-(4-(1-(2-fluoroethyl)pyrrolidin-3-ylamino)phenylamino)-5-methoxypyrimidin-4-ylamino)phenyl)acrylamide] | < 0.01 µM | ≤ 0.01 µM | ≥ 0.4 µM | – | –
C=CC(=O)Nc1cccc(Oc2nc(Nc3ccc(N4CCN(CCOC)CC4)cc3)ncc2OC)c1 [Compound I-25a, N-(3-(5-methoxy-2-(4-(4-(2-methoxyethyl)piperazin-1-yl)phenylamino)pyrimidin-4-yloxy)phenyl)acrylamide] | – | ≤ 0.01 µM | ≥ 0.4 µM | ≤ 0.01 µM | ≥ 0.4 µM
C=CC(=O)Nc1cccc(Nc2nc(Nc3ccc(N4CCN(CCF)CC4)cc3)ncc2OC)c1 [Compound I-5] | < 0.01 µM | ≤ 0.01 µM | 0.2 to 0.4 µM | – | –

Further lines, results first:

IC50 [1] | IC50 [2] | IC50 [3] | IC50 [4] | IC50 [5] | SMILES
0.01 to 0.1 µM | 0.01 to 0.1 µM | ≥ 0.4 µM | – | – | C=CC(=O)Nc1cccc(Nc2nc(Nc3ccc(N4CCN(CCF)CC4)c(F)c3)ncc2OC)c1 [Compound I-7]
< 0.01 µM | ≤ 0.01 µM | ≥ 0.4 µM | – | – | C=CC(=O)Nc1cccc(Nc2nc(Nc3ccc(N[C@@H]4CCN(CCF)C4)cc3)ncc2OC)c1 [Compound I-17, (R)—N-(3-(2-(4-(1-(2-fluoroethyl)pyrrolidin-3-ylamino)phenylamino)-5-methoxypyrimidin-4-ylamino)phenyl)acrylamide]
< 0.01 µM | – | – | – | – | C=CC(=O)Nc1cccc(Oc2nc(Nc3ccc(N4CCN(CCF)CC4)c(F)c3)ncc2F)c1 [Compound I-8]
0.01 to 0.1 µM | 0.01 to 0.1 µM | ≥ 0.4 µM | – | – | C=CC(=O)Nc1cccc(Oc2nc(Nc3ccc(N[C@@H]4CCN(CCF)C4)cc3)ncc2OC)c1 [Compound I-14, (R)—N-(3-(2-(4-(1-(2-fluoroethyl)pyrrolidin-3-ylamino)phenylamino)-5-methoxypyrimidin-4-yloxy)phenyl)acrylamide]
< 0.01 µM | ≤ 0.01 µM | 0.2 to 0.4 µM | – | – | C=CC(=O)Nc1ccccc1Nc1nc(Nc2ccc(N3CCN(CCF)CC3)cc2)ncc1F [Compound I-6, N-(2-(5-fluoro-2-(4-(4-(2-fluoroethyl)piperazin-1-yl)phenylamino)pyrimidin-4-ylamino)phenyl)acrylamide]
< 0.01 µM | ≤ 0.01 µM | 0.2 to 0.4 µM | 0.01 to 0.1 µM | – | C=CC(=O)Nc1cccc(Oc2nc(Nc3ccc(OCCOC)cc3)nc3[nH]ccc23)c1 [Compound I-10, N-(3-(2-(4-(2-methoxyethoxy)phenylamino)-7H-pyrrolo[2,3-d]pyrimidin-4-yloxy)phenyl)acrylamide]
0.01 to 0.1 µM | 0.01 to 0.1 µM | ≥ 0.4 µM | – | – | C=CC(=O)Nc1cccc(Nc2nc(Nc3ccc(OCCOC)cc3)nc3[nH]ccc23)c1 [Compound I-11, N-(3-(2-(4-(2-methoxyethoxy)phenylamino)-7H-pyrrolo[2,3-d]pyrimidin-4-ylamino)phenyl)acrylamide]
0.01 to 0.1 µM | 0.01 to 0.1 µM | 0.2 to 0.4 µM | – | – | C=CC(=O)Nc1cccc(Oc2nc(Nc3ccc(N4CCN(CCF)CC4)cc3)ncc2F)c1 [Compound I-12]
< 0.01 µM | ≤ 0.01 µM | 0.2 to 0.4 µM | – | – | C=CC(=O)Nc1cccc(Nc2nc(Nc3ccc(N[C@@H]4CCN(CCF)C4)cc3)ncc2F)c1 [Compound I-18]
< 0.01 µM | ≤ 0.01 µM | ≥ 0.4 µM | ≤ 0.01 µM | – | C=CC(=O)Nc1cccc(Oc2nc(Nc3ccc(N[C@H]4CCN(CCF)C4)cc3)ncc2OC)c1 [Compound I-13, (S)—N-(3-(2-(4-(1-(2-fluoroethyl)pyrrolidin-3-ylamino)phenylamino)-5-methoxypyrimidin-4-yloxy)phenyl)acrylamide]
